Measurements: US11185548B2, “Inhibitors of cytochrome P450 family 7 subfamily B member 1 (CYP7B1) for use in treating diseases” (HELMHOLTZ ZENTRUM MÜNCHEN—DEUTSCHES FORSCHUNGSZENTRUM FÜR …, priority 2016, dated 2021)
Entries after “also recorded” stand apart in the source; their conditions may differ.

Columns and labels:
[1] = test system: IgM cross-linked splenic B cells; assay: ex vivo B cell migration assay towards medium from CSE treated airways; format: cell-based, mouse; details: 10% CSE
Experimental: (§1) Middle and distal airways from C57BL/6J and Ch25h^−/− mice were isolated and incubated ex vivo as described by Yildirim et al. (Eur Respir J 32, 694-704 (2008)). Briefly, after sacrifice by a ketamine-xylazine over dose, the trachea was cannulated, the lungs removed from the thorax and infused with 1% low-melting agarose dissolved in 1:1 Ham's F12 nutrient medium (Sigma-Aldrich) and distilled water (Gibco, Life Technologies). Airways were dissected under a microscope (Zeiss) from the left lung after the agarose had solidified on ice for 30 min. The isolated airways were washed and cultured in airway epithelial cell medium (PromoCell) at 37° C., 5% CO2.
B cells were purified from the spleens of C57BL/6J mice by negative selection (B cell Isolation Kit, mouse, Miltenyi Biotec). For the migration assay, primary mouse airways were isolated 1 day prior, treated with 10% cigarette smoke extract (CSE) in airway epithelial cell culture medium or culture medium alone for 24 h and at the same time to inhibit Cyp7b1, clotrimazole was also diluted with culture medium to a final concentration of 1 μM for 1 h prior to the migration assay. […] The supernatants were transferred as conditioned medium to the lower well of 24-well transwell plates (Permeable Polycarbonate Membrane Inserts, Corning, Fisher Scientific), for inducing B cell migration, while the airway samples were snap frozen in liquid nitrogen for RNA isolation. Freshly isolated B cells at 2.5×10^6/ml in 100 μl were activated by unconjugated AffiniPure F(ab′)2 Fragment Goat anti-mouse IgM, μchain specific antibody (1.3 μg/ml, 115-006-020, Jackson Immunoresearch Laboratories) for 1 hr at 37° C. in 5.0 μm pore sized transwell inserts (Permeable Polycarbonate Membrane Inserts, Corning, Fisher Scientific). Transwell inserts were then placed into the wells of conditioned medium and incubated for 3 hr at 37° C. Migrated B cells were collected and counted by Neubauer Chamber and reported as percentage of input.

[2] = test system: Cyp7b1 mRNA; assay: quantitative real time RT-PCR of CSE treated airways: Cyp7b1; format: cell-based, mouse; details: CSE treated airways dissected from C57BL/6 mice, 1 μM clotrimazole
Experimental: (§2) 1 ug RNA was reverse transcribed using Random Hexamers and MuLV Reverse Transcriptase (Applied Biosystems). Gene expression was analyzed using SensiFAST SYBR Hi-ROX Kit (Bioline) on a StepOnePlus 96 well Real-Time PCR System (Applied Biosystems). Primer sequences can be found in Table 1. Expression of each gene was calculated relative to the housekeeping gene HPRT1 or Hprt1 as 2^−[…]Ct.
as §1
(§3) B cells were purified from the spleens of C57BL/6J mice by negative selection (B cell Isolation Kit, mouse, Miltenyi Biotec). […] Migrated B cells were collected and counted by Neubauer Chamber and reported as percentage of input.

[3] = test system: C57BL/6 mice exposed to cigarette smoke; assay: CS induced COPD model, clotrimazole therapeutic dosing; format: in vivo, mouse
Experimental: Experimental design: In the early treatment group C57BL/6 mice were exposed to filtered air (FA) or cigarette smoke (CS) for 4 months and treated with clotrimazole (i.p. 80 mg/Kg 3 times per week) from months 2 to 4 or oil controls. In the late treatment group C57BL/6 mice were exposed to FA or CS for 6 months and treated with clotrimazole from months 4 to 6 or oil controls.
8-12 week old mice were used in all experiments. For the CS induced COPD model, mice were exposed to 100% mainstream CS (John et al., Clinical science 126, 207-221 (2014)) at a particle concentration of 500 mg/m^3, generated from 3R4F research cigarettes (Filter removed, Tobacco Research Institute, University of Kentucky), for 50 min twice/day, 5 days/week for 4 or 6 months. Mice exposed to filtered air were used as controls. For the elastase induced iBALT-independent COPD model, mice were instilled oropharyngeally with a single application of 80 U/Kg body weight Porcine Pancreatic Elastase (PPE) (Sigma Aldrich) in 80 μl PBS. Mice treated with 80 μl PBS were included as controls. For Cyp7b1 inhibition, clotrimazole (Sigma Aldrich) 10 mM in DMSO, was further diluted in Corn oil (Mazola, Unilever) and applied i.p. at a dose of 80 mg/Kg body weight 3 times/week for two months. Mice were treated after two or four months of CS exposure and smoked for a further two months in parallel with the clotrimazole treatment.
After lung function analysis lungs were lavaged with 3×500 ul aliquots of sterile PBS (Gibco, Life Technologies) supplemented with Complete Protease Inhibitor Cocktail tablets (Roche Diagnostics). Cells were pelleted at 400 g for 20 min and resuspended in 500 μl RPMI-1640 medium (Gibco, Life Technologies) for the total cell count using a Neubauer Chamber. Cytospins of the cell suspension were then prepared and stained using May-Grünwald-Giemsa for differential cell counting (200 cells/sample) using morphological criteria. BAL fluid was retained for mass spectrometry analysis.
H&E stained tissue sections were analyzed by design-based stereology using an Olympus BX51 light microscope equipped with the new Computer Assisted Stereological Toolbox (newCAST, Visiopharm) as described (John-Schuster et al., American journal of physiology. Lung cellular and molecular physiology 307, L692-706 (2014)), by readers blinded to the study groups. Briefly, for mean chord length (MCL) measurements, 20 frames were selected randomly across multiple sections by the software, using the ×20 objective, and superimposed by a line grid and points. The intercepts of lines on alveolar wall (Lsepta) and points localized on air space (Pair) were counted and calculated as MCL=ΣPair××L(p)/ΣLsepta×0.5, where L(p) is the line length per point. The volume of inflammation (V) was quantified in 50 frames, using the ×40 objective, by counting points hitting inflammatory cell zones (Pinflam). For calculation, the Pinflam were referenced to intercepts of lines with both airways and vessels (Iairway/vessel): V=ΣPinflam×L(p)/ΣIairway/vessel. Further, airway, vessel or septum associated inflammation quantification was classified by the location of the inflammation, and was calculated referring to intercept of lines with airway, vessel, or both, respectively.

[4] = test system: Ch25h mRNA; assay: quantitative real time RT-PCR of CSE treated airways: Ch25h; format: cell-based, mouse; details: CSE treated airways dissected from C57BL/6 mice, 1 μM clotrimazole
Experimental: as §2, §1, §3

[5] = test system: Tnf expression; assay: gene expression after 10% CSE + LPS stimulation: Tnf; format: cell-based, mouse; details: 10% CSE + 10 μg/mL LPS
Experimental: (§4) The cells were incubated for 24h at 37° C., 5% CO2, in a 24 well-plate with or without 10% cigarette smoke extract (CSE, 10%)+lipopolysaccharide (LPS, 10 μg/mL), supplemented or not with the 18 CYP7B1 inhibitors (0.3 and 1 μM). B cells were purified from the spleens of C57BL/6J mice by negative selection (B cell Isolation Kit, mouse, Miltenyi Biotec). Freshly isolated B cells at 2.0×10^6/mL in 100 μL were activated by unconjugated AffiniPure F(ab′)2 Fragment Goat anti-mouse IgM, μchain specific antibody (10 μg/mL, 115-006-020, Jackson Immunoresearch Laboratories) for 1 hr at 37° C. in 5.0 μm pore sized transwell inserts (Permeable Polycarbonate Membrane Inserts, Corning, Fisher Scientific). Migrated B cells were collected, and counted by fluorescence-activated cell sorting (FACS) (Trucount tubes, BD Biosciences).
as §2, with “10 ng” for “1 ug”, “Primer sequences can be found in Table 1.” left out, “18S” for “HPRT1 or Hprt1”, “2^−ΔCt.” for “2^−[…]Ct.”

[6] = test system: Ch25h expression; assay: gene expression after 10% CSE + LPS stimulation: Ch25h; format: cell-based, mouse; details: 10% CSE + 10 μg/mL LPS
Experimental: as §4
as §2, with “10 ng” for “1 ug”, “Primer sequences can be found in Table 1.” left out, “18S” for “HPRT1 or Hprt1”, “2^−ΔCt.” for “2^−[…]Ct.”

[7] = test system: Cyp7b1 expression; assay: gene expression after 10% CSE + LPS stimulation: Cyp7b1; format: cell-based, mouse; details: 10% CSE + 10 μg/mL LPS
Experimental: as §4
as §2, with “10 ng” for “1 ug”, “Primer sequences can be found in Table 1.” left out, “18S” for “HPRT1 or Hprt1”, “2^−ΔCt.” for “2^−[…]Ct.”

[8] = early and late treatment groups, i.p. 80 mg/Kg 3 times per week
[9] = early treatment: CS 4 months, i.p. 80 mg/Kg 3 times per week from months 2 to 4
[10] = late treatment: CS 6 months, i.p. 80 mg/Kg 3 times per week from months 4 to 6

Compound: Clc1ccc(COC(Cn2ccnc2)c2ccc(Cl)cc2Cl)c(Cl)c1 (racemic) [Miconazole, (RS)-1-(2-(2,4-Dichlorobenzyloxy)-2-(2,4-dichlorophenyl)ethyl)-1H-imidazole]
- migration of activated B cells towards culture supernatant from CSE-treated airways ([1]; compound 1 μM): impaired B cell migration

Compound: CC(C)(C(=O)c1cccnc1)c1cccnc1 [Metyrapone, 2-methyl-1,2-di(pyridin-3-yl)propan-1-one]
- migration of activated B cells towards culture supernatant from CSE-treated airways ([1]; compound 1 μM): impaired B cell migration

Compound: CC(C)c1nc(CN(C)C(=O)N[C@H](C(=O)N[C@@H](Cc2ccccc2)C[C@H](O)[C@H](Cc2ccccc2)NC(=O)OCc2cncs2)C(C)C)cs1 [Ritonavir, 1,3-thiazol-5-ylmethyl N-[(2S,3S,5S)-3-hydroxy-5-[(2S)-3-methyl-2-{[methyl({[2-(propan-2-yl)-1,3-thiazol-4-yl]methyl})carbamoyl]amino}butanamido]-1,6-diphenylhexan-2-yl]carbamate]
- migration of activated B cells towards culture supernatant from CSE-treated airways ([1]; compound 0.1 μM): impaired B cell migration
- migration of activated B cells towards culture supernatant from CSE-treated airways ([1]; compound 1 μM): impaired B cell migration

Compound: Clc1ccccc1C(c1ccccc1)(c1ccccc1)n1ccnc1 [clotrimazole, 1-[(2-Chlorophenyl)(diphenyl)methyl]-1H-imidazole]
- Cyp7b1 mRNA abundance [2]: sufficient to reduce Cyp7b1 mRNA expression
- migration of activated B cells towards culture supernatant from CSE-treated airways ([1]; compound 1 μM): significantly impaired the ability of activated B cells to migrate; also recorded: impairs B cell migration
- cigarette smoke-induced COPD [3, 8]: protects against and reverses cigarette smoke-induced COPD
- lung inflammatory responses following exposure to chronic cigarette smoke [3, 8]: does not attenuate lung inflammatory responses
- emphysema development (mean chord length) [3, 9]: lack of emphysema development
- iBALT formation [3, 9]: significantly reduced iBALT formation
- lung volume [3, 9]: no deterioration in lung volume
- lymphocyte cell numbers in BAL fluid [3, 9]: reduced macrophage and lymphocyte cell numbers
- macrophage cell numbers in BAL fluid [3, 9]: reduced macrophage and lymphocyte cell numbers
- emphysema (mean chord length) [3, 10]: attenuated
- iBALT [3, 10]: attenuated
- lung volume [3, 10]: reduced lung volume
- macrophage cell numbers in BAL fluid [3, 10]: reduced macrophage cell numbers
- Ch25h mRNA abundance [4]: did not affect Ch25h levels
- induction of Tnf (TNFα) expression [5]: inhibited
- induction of Tnf (TNFα) expression ([5]; listed as Clotrimazole): inhibits the gene expression
- induction of Ch25h expression [6]: inhibited
- induction of Ch25h expression ([6]; listed as Clotrimazole): inhibits the gene expression
- induction of Cyp7b1 expression [7]: inhibited
- induction of Cyp7b1 expression ([7]; listed as Clotrimazole): inhibits the gene expression
